Legend:
Alternaria brassicae = experiment: In vivo test on Alternaria brassicae (leaf spot of crucifers), preventive spray on radish plants; details: under these conditions (radish plants, comparison compound of prior art)
Protocol: The active ingredient tested is prepared by homogenisation in DMSO (5% of the final volume), acetone (10% of the final volume) and tween 80 10% (5 μl/mg active ingredient). Radish plants (Pernot variety) in starter cups, sown on a 50/50 peat soil-pozzolana substrate and grown at 18-20° C., are treated at the cotyledon stage by spraying with the aqueous suspension described above. Plants, used as controls, are treated with an aqueous solution not containing the active material. After 24 hours, the plants are contaminated by spraying them with an aqueous suspension of Alternaria brassicae spores (40,000 spores per cm^3). The spores are collected from a 12 to 13 days-old culture. The contaminated radish plants are incubated for 6-7 days at about 18° C., under a humid atmosphere. Grading is carried out 6 to 7 days after the contamination, in comparison with the control plants. Under these conditions, good (at least 70%) or total protection is observed at a dose of 500 ppm with the following compounds: 1-2, 2-2, 2-5, 3-2, 3-5, 4-3, 4-4, 4-5, 4-6, 5-4, 5-5, 5-7, 6-1, 7-1, 7-3, 7-4, 7-6, 9-3, 10-3, 10-4, 5, 10-6, 10-8, 11-1, 11-2, 12-2, 13-1, 13-3, 13-5, 15-2, 15-3, 16-4, 19-1, 20-1, 21-1, 21-2, 22-2, 22-3, 23-1, 24-1, 24-2, 25-1, 25-3, 26-2, 27-1, 28-2, 30-1, 30-2, 31-1, 32-1 and 33-2.

Botrytis cinerea = experiment: In vivo test on Botrytis cinerea (cucumber grey mould), preventive spray on cucumber plants; details: under these conditions (cucumber plants, comparison compounds of prior art)
Protocol: (§1) The active ingredient tested is prepared by homogenisation in DMSO (5% of the final volume), acetone (10% of the final volume) and tween 80 10% (5 μl/mg active ingredient).
(§2) Cucumber plants (Marketer variety) in starter cups, sown on a 50/50 peat soil-pozzolana substrate and grown at 18-20° C., are treated at the cotyledon Z11 stage by spraying with the aqueous suspension described above. Plants, used as controls, are treated with an aqueous solution not containing the active material.
After 24 hours, the plants are contaminated by depositing drops of an aqueous suspension of Botrytis cinerea spores (150,000 spores per ml) on upper surface of the leaves. The spores are collected from a 15-day-old culture and are suspended in a nutrient solution composed of: • 20 g/L of gelatin • 50 g/L of cane sugar • 2 g/L of NH4NO3 • 1 g/L of KH2PO4
The contaminated cucumber plants are settled for 5/7 days in a climatic room at 15-11° C. (day/night) and at 80% relative humidity.

Sphaerotheca fuliginea = experiment: In vivo test on Sphaerotheca fuliginea (powdery mildew), preventive spray on gherkin plants; details: under these conditions (gherkin plants, comparison compounds of prior art)
Protocol: as §1
as §2, with “Gherkin” for “Cucumber”, “(Vert petit de Paris” for “(Marketer”, “20° C./23°” for “18-20°”, “at” for “at the”
After 24 hours, the plants are contaminated by spraying them with an aqueous suspension of Sphaerotheca fuliginea spores (100 000 spores per ml). The spores are collected from a contaminated plants. The contaminated gerkhin plants are incubated at about 20° C./25° C. and at 60/70% relative humidity.

Pyrenophora teres = experiment: In vivo test on Pyrenophora teres (barley net blotch), preventive spray on barley plants; details: under these conditions (barley plants, comparison compound of prior art)
Protocol: as §1
as §2, with “Barley” for “Cucumber”, “(Express” for “(Marketer”, “12°” for “18-20°”, “1-leaf” for “cotyledon Z11”, “stage (10 cm tall)” for “stage”
After 24 hours, the plants are contaminated by spraying them with an aqueous suspension of Pyrenophora teres spores (12,000 spores per ml). The spores are collected from a 12-day-old culture. The contaminated barley plants are incubated for 24 hours at about 20° C. and at 100% relative humidity, and then for 12 days at 80% relative humidity.

CCCCCCCCNC(=O)c1snc(Cl)c1Cl [4-dichloro-N-octylisothiazol-5-carboxamide]
activity against Alternaria brassicae (Alternaria brassicae): did not show any activity
activity against Botrytis cinerea (Botrytis cinerea): did not show any activity

Cc1nnsc1C(=O)NC(C)C [N-isopropyl-4-methyl-1,2,3-thiadiazole-5-carboxamide]
activity against Sphaerotheca fuliginea (Sphaerotheca fuliginea): did not show any activity
activity against Botrytis cinerea (Botrytis cinerea): did not show any activity

CCC(C)NC(=O)c1cc(C)oc1C (stereo not shown) [N-sec-butyl-2,5-dimethyl-3-furamide]
activity against Sphaerotheca fuliginea (Sphaerotheca fuliginea): did not show any activity
activity against Pyrenophora teres (Pyrenophora teres): did not show any activity
activity against Botrytis cinerea (Botrytis cinerea): did not show any activity
